Experimental data published in ChEMBL document CHEMBL1201862, “PubChem BioAssay data set” (2004).
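Dose response: 5 concentrations. Exposure: 48 h. Format: 96-well plates. Endpoint: linear interpolation; highest concentration if not reached. GI50 marks 50% less growth.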 Calls of active or inactive are those of the source. Rule as the data show it: active = GI50 up to about 1.1 µM and inactive = higher.

Key:
Experiment in all cases: NCI tumour cell line growth inhibition, 48 h
786-0 = test system: 786-0
A498 = test system: A498
A549 = test system: A549
ACHN = test system: ACHN
BT-549 = test system: BT-549
CAKI-1 = test system: CAKI-1
CCRF-CEM = test system: CCRF-CEM
DLD-1 = test system: DLD-1
DMS-114 = test system: DMS-114
DMS-273 = test system: DMS-273
DU-145 = test system: DU-145
EKVX = test system: EKVX
HCC 2998 = test system: HCC 2998
HCT-116 = test system: HCT-116
HCT-15 = test system: HCT-15
HL-60 = test system: HL-60
HOP-18 = test system: HOP-18
HOP-62 = test system: HOP-62
HOP-92 = test system: HOP-92
HT-29 = test system: HT-29
Hs-578T = test system: Hs-578T
IGROV-1 = test system: IGROV-1
K562 = test system: K562
KM-20L2 = test system: KM-20L2
LOX IMVI = test system: LOX IMVI
M14 = test system: M14
M19-MEL = test system: M19-MEL
MCF7 = test system: MCF7
MDA-MB-231 = test system: MDA-MB-231
MDA-MB-435 = test system: MDA-MB-435
MDA-N = test system: MDA-N
MOLT-4 = test system: MOLT-4
Malme-3M = test system: Malme-3M
NCI-H23 = test system: NCI-H23
NCI-H460 = test system: NCI-H460
NCI/ADR-RES = test system: NCI/ADR-RES
OVCAR-3 = test system: OVCAR-3
OVCAR-4 = test system: OVCAR-4
OVCAR-5 = test system: OVCAR-5
OVCAR-8 = test system: OVCAR-8
PC-3 = test system: PC-3
RPMI-8226 = test system: RPMI-8226
RXF 393 = test system: RXF 393
SF-268 = test system: SF-268
SF-295 = test system: SF-295
SF-539 = test system: SF-539
SK-MEL-2 = test system: SK-MEL-2
SK-OV-3 = test system: SK-OV-3
SN12C = test system: SN12C
SNB-19 = test system: SNB-19
SNB-75 = test system: SNB-75
SR = test system: SR
SW-620 = test system: SW-620
T47D = test system: T47D
TK-10 = test system: TK-10
U-251 = test system: U-251
UACC-62 = test system: UACC-62
UO-31 = test system: UO-31
XF498 = test system: XF498
COLO 205 = test system: COLO 205
LXFL 529 = test system: LXFL 529
NCI-H522 = test system: NCI-H522
SK-MEL-28 = test system: SK-MEL-28
SK-MEL-5 = test system: SK-MEL-5

Measured: GI50

C=Cc1cc(OC)c2c(c1)c(=O)oc1c2cc(OC)c2c(O)ccc(C3OC(C)C(O)C(C)(O)C3O)c21 (stereo unspecified)
48.9 nM: HCT-15
active: 786-0 0.348 nM | A498 44.4 nM | A549 32.8 nM | ACHN 0.409 nM | BT-549 1.83 nM | CAKI-1 46.2 nM | CCRF-CEM 22.5 nM | DLD-1 67.1 nM | DMS-114 22.5 nM | DMS-273 54.5 nM | DU-145 0.296 nM | EKVX 39.8 nM | HCC 2998 49.3 nM | HCT-116 23.5 nM | HL-60 22.5 nM | HOP-18 53 nM | HOP-62 22.5 nM | HOP-92 41 nM | HT-29 34.1 nM | Hs-578T 2.95 nM | IGROV-1 40.3 nM | K562 30.6 nM | KM-20L2 41 nM | LOX IMVI 22.5 nM | M14 0.382 nM | M19-MEL 61.4 nM | MCF7 22.5 nM | MDA-MB-231 3.45 nM | MDA-MB-435 1.63 nM | MDA-N 1.71 nM | MOLT-4 22.5 nM | Malme-3M 76.4 nM | NCI-H23 23.7 nM | NCI-H460 22.5 nM | NCI/ADR-RES 34.4 nM | OVCAR-3 54.8 nM | OVCAR-4 27.1 nM | OVCAR-5 39.7 nM | OVCAR-8 25 nM | PC-3 0.638 nM | RPMI-8226 29.4 nM | RXF 393 22.5 nM | SF-268 23.7 nM | SF-295 31.3 nM | SF-539 29.5 nM | SK-MEL-2 29.4 nM | SK-OV-3 44.5 nM | SN12C 30.3 nM | SNB-19 37.2 nM | SNB-75 30.2 nM | SR 0.00307 nM | SW-620 22.5 nM | T47D 1.47 nM | TK-10 2.49 nM | U-251 29.6 nM | UACC-62 31.7 nM | UO-31 45.4 nM | XF498 25.2 nM

Cc1nc2ccccc2c(=O)n1/N=C(\N=N\c1ccc(Cl)cc1)c1ccc(N(C)C)cc1
> 100000 nM: HCT-15
inactive: 786-0 > 100000 nM | A498 > 100000 nM | A549 > 100000 nM | ACHN > 100000 nM | CAKI-1 > 100000 nM | CCRF-CEM 81500 nM | COLO 205 > 100000 nM | DLD-1 71400 nM | DMS-114 38900 nM | DMS-273 60100 nM | EKVX > 100000 nM | HCT-116 46100 nM | HOP-18 46000 nM | HOP-62 66400 nM | HT-29 > 100000 nM | IGROV-1 > 100000 nM | K562 36600 nM | KM-20L2 > 100000 nM | LOX IMVI > 100000 nM | LXFL 529 47800 nM | M19-MEL > 100000 nM | MOLT-4 61100 nM | NCI-H23 72400 nM | NCI-H460 93800 nM | NCI-H522 38700 nM | OVCAR-8 > 100000 nM | RXF 393 80400 nM | SF-268 32700 nM | SF-295 > 100000 nM | SF-539 > 100000 nM | SK-MEL-28 26200 nM | SK-MEL-5 54600 nM | SK-OV-3 > 100000 nM | SN12C 56900 nM | SNB-19 48000 nM | SW-620 > 100000 nM | TK-10 > 100000 nM | U-251 > 10000 nM | UACC-62 70300 nM | UO-31 21800 nM | XF498 14600 nM
